Experimental data from BindingDB's records for doi:10.1021/bi5004519 (University of Pennsylvania, 2014).

What was measured:
Arginase [1] = molecular target: T1, Arginase (Schistosoma mansoni, UniProt Q6WVP6); assay: ITC; conditions: pH 8.5
T1 sequence (Q6WVP6 whole entry): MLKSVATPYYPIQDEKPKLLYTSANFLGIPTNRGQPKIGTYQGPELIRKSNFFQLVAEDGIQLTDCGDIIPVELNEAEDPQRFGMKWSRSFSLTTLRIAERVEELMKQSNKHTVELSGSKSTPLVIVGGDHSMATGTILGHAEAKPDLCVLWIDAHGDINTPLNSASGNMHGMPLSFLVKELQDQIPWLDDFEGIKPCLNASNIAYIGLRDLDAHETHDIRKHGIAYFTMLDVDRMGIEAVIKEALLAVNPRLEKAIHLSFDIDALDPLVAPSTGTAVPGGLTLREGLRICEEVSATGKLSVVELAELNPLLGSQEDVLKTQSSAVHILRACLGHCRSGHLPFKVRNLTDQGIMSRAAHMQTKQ
Method: SmARG was dialyzed against 50 mM bicine (pH 8.5), 100 μM MnCl2, and 1.0 mM TCEP [5% (v/v) DMSO was included in the dialysis buffer when SmARG was titrated with ABH-PE and ABH-DP]. The inhibitor (ABH, 0.547 mM; NOHA, 1.097 mM; nor-NOHA, 0.443 mM; ABH-PE, 0.410 mM; ABH-DP, 0.436 mM) was dissolved in dialysis buffer.

Arginase [2] = molecular target: T1, Arginase; assay: Archibald assay; conditions: pH 8.5
Method: Briefly, 0.5-50 mM L-arginine (pH 8.5) was added to a solution of 50 mM 4-(2-hydroxyethyl)piperazine-1-propanesulfonic acid (EPPS) (pH 8.5) and 100 μM MnCl2. The reaction (200 μL) was initiated by adding 1 μM SmARG at 21°C and terminated after 1 min using 30 μL of a 3:1 (v/v) concentrated acid/dye solution.

SMILES	Kd (Arginase [1])	Ki (Arginase [2])
N[C@](CCCCB(O)O)(CCN1CCCCC1)C(=O)O	260 nM	
N[C@@H](CCCCB(O)O)C(=O)O [2(S)-amino-6-boronohexanoic acid (ABH)]	1300 nM	1800 nM
N[C@@](CCCCB(O)O)(C(=O)O)C1CCN(Cc2ccc(Cl)c(Cl)c2)CC1 [(R)-2-amino-6-borono-2-[1-(3,4-dichlorobenzyl)piperidin-4-yl]hexanoic acid (ABH-DP)]	540 nM	
